Results on one substance are retold here after patent US8192925B2, “Polypeptides having antimicrobial activity and polynucleotides encoding same” (Novozymes Adenium Biotech A/S, priority 2004, dated 2012).

Common to all, as to assay: Microdilution MIC assay (NCCLS/CLSI guidelines)
Holding throughout (type): cell-based
Holding throughout (details): tested 0.06-32 μg/ml
Background: In broth dilution the organism is exposed to a series of concentrations in liquid medium.

Experiment [1] has as its system Staphylococcus aureus, ATCC 29213. On the procedure:
(§1) Purified Eurocin was evaluated for antimicrobial activity in a microdillution assay. The
(§2) Minimal Inhibitory Concentration (MIC) was determined following the NCCLS/CLSI guidelines from CLSI (Clinical and Laboratory Standards Institute).
(§3) Eurocin was tested at the following concentrations: 32; 16; 8; 4; 2; 1; 0.50; 0.25; 0.13; and 0.06 μg/ml.

Experiment [2] concerns Staphylococcus carnosus, ATCC 51365. On the procedure:
as §1, §2, §3

Experiment [3] deals with Streptococcus pneumoniae, ATCC 49619. On the procedure:
as §1, §2, §3

For experiment [4], the system named is Streptococcus pyogenes, ATCC 12344. On the procedure:
as §1, §2, §3

Experiment [5] has as its system Enterococcus faecium, ATCC 49624. The procedure: as §1, §2, §3
Experiment [6] concerns Staphylococcus epidermidis, ATCC 12228. The procedure:
as §1, §2, §3

The subject of experiment [7] is Micrococcus luteus, ATCC 9341. On the procedure: as §1, §2, §3

In general, MIC refers to the smallest concentration in the dilution series that meets the test's criterion for growth inhibition. A lower MIC goes with inhibition by little substance. “Eurocin: antimicrobial polypeptide shown as amino acids 1 to 42 of SEQ ID NO:2, from Eurotium amstelodami, expressed in Aspergillus oryzae (MHFTKVSTILFTIFAAGIMAAPTEGVREEAAPGQEVYPDEPP; listed as Eurotium amstelodami)”: the minimal inhibitory concentration (MIC) in experiment [1] came to 16 µg/mL; in experiment [2], 8 µg/mL; in experiment [3], 0.25 µg/mL; in experiment [4], 0.13 µg/mL; in experiment [5] it was 16 µg/mL; in experiment [6] it was 16 µg/mL. For the same substance, in experiment [7], the MIC was 0.5 µg/mL.
